# Experimental data from PMC9714824, “Hexapeptides from mammalian inhibitory hormone hunt activate and inactivate nematode reproduction” (PLOS ONE, 2022).
# Legend:
# mouse renal cell = settings: in words; cited from earlier work
# rat bone marrow cells = experiment: Bone marrow cell assay, time-lapse cell counts over 24h; format: cell-based; settings: EPL001, EPL030 at 6μM, EPL120 at 5μM final concentration, in words (Fig 6)
# Experimental: The method has been described previously at length. Bone marrow cells, consisting of various cell types including mesenchymal stem cells and fibroblasts, were cultured from adult male rats (Rattus norvegicus, SD strain). These cells were passaged from a growing primary stock in a T75 tissue culture flask (Sarstedt) into a 48 well tissue culture plate (IWAKI), with a cell density of 1 x 10^5/ml. The cell culture media, henceforth referred to as ‘supplemented a-MEMS,’ comprised α-MEMS media supplemented with 10% FCS and 1% penicillin/streptomycin (all Life Technologies, Carlsbad, CA, US). On the day of peptide addition to the cells, the supplemented α-MEMS was gently removed and fresh supplemented α-MEMS added, with 10% test material by volume to achieve micromolar concentrations, untreated controls receiving just fresh supplemented α-MEMS. (For dose levels see legends in respective result figures) All samples were filter sterilised using a Millex-GV […] syringe filter unit (Merck, Kenilworth, NJ, USA). The cells were imaged for 24 h using an incubated Zeiss Axiovert 135M microscope with a Prior Proscan II motorised stage, at 37 °C with a 5% CO2 in air feed. Each well of the 48-well tissue culture plate was then imaged for 24h every 5 min using Metamorph software (MDS Analytical Technologies, Wokingham, UK), with each well having four fields of view. The viability and cell numbers were reviewed by analysing the images captured over the 24h period and cell counts were taken at selected time points using the Metamorph software.
# Fig 6 Bone marrow cells in culture exposed to long peptides. Cells were counted over 24h after exposure to the 14mer peptide EPL001 or its scrambled-sequence control EPL030 at 6μM final concentration or to the 20mer EPL120 at 5μM final concentration, compared to peptide-untreated controls.
# Fig 7 Bone marrow cells in culture exposed to hexapeptides. Cells were counted over 24h after exposure to either EPL016 (= MKPLTG, the ‘Front 6’ of the 14mer EPL001) or EPL036 (= IEPVFT, the ‘Back 6’ of EPL030, the scrambled-sequence control of EPL001) at 1μM final concentration, compared to peptide-untreated controls.
# [1] = tested on: MCF 7 human breast cancer cells; settings: in words; EPL120 over 72h, dose range 0.04 nM– 4 μM; cited from earlier work
# PC3 cells = experiment: MTS colorimetric viable cell assay, PC3; format: cell-based, human; settings: PC3; 30 μM; 27h; MTS, 492 nm; triplicate
# Experimental: (§1) Assays involving a range of peptides from 14mer down to 6mers assessed total viable PC3 or PNT2 cells using a 96-well plate MTS colorimetric assay (CellTiter 96 Aqueous One Solution Cell Proliferation Assay, Promega, Southampton, UK), with absorbance measured at 492 nm. Cells were seeded at 8,000 per well and grown for 27h. Peptides were administered at the outset to a final concentration of 30 μM (in 2 μl) to samples in triplicate. (A higher dosage was used than in the 14mer peptides study to shorten the timecourse of response.) Controls received buffer. Data are OD mean +/ − SEM, with statistical analysis by two tailed t-test. A time course study of the 14mers on PC3s, using the same technique, involved measurements at 24h and 48h.
# (§2) Fig 5 Effects of a range of peptides on human prostate cancer cell growth in vitro. Assays involved a range of peptides from 14mers down to 6mers (Table 1), with viable cells assessed using a 96-well plate MTS colorimetric assay. Absorbance measured at 492 nm. Cells were seeded at 8,000 per well and grown for 27h. Peptides were administered at the outset to a final concentration of 30 μM (in 2 μl) to samples in triplicate. Controls received buffer. Data are OD mean +/- SEM, with statistical analysis by two tailed t-test. * p<0.05; **p<0.025.
# PNT2 cells = experiment: MTS colorimetric viable cell assay, PNT2; format: cell-based, human; settings: 30 μM, 27h, 492 nm, triplicate
# Experimental: as §1, §2
# LNCaP cells = experiment: MTS viable cell assay, LNCaP (Epistem); format: cell-based, human; settings: over 72h, single dose level
# Experimental: (§3) Further assays on human prostate cancer cells were conducted at a contract research organisation (Epistem, Manchester, UK). LNCaP or DU145 cells seeded at 3,000 cells/well across a 96-well plate were cultured in RPMI (phenol red free), 10% FCS, 1% sodium pyruvate, Pen/strep and L-glutamine for 24h before exposure to peptides, at a single dose level in the case of LNCaPs or multiple dose levels in the case of DU145s. (For dose levels see Results.) Controls received vehicle (1% PBS). For the DU145s peptide administration was repeated after 24h. 72h after the first administration (DU145s) or only administration (LNCaP) total viable cell numbers were measured colorimetrically (MTS) using a CellTiter 96 AQueous One Solution Cell Proliferation Assay (Promega, Southampton, UK), following manufacturer’s instructions. Briefly, the media on the plates was replaced with the CellTiter reagent diluted 1:5 in DMEM. The plates were returned to the incubator for 3 hours before reading absorbance at 492 nm on a FLUORstar OPTIMA (BMG Labtech). CellTiter data are the absorbance minus background values (CellTiter plus DMEM), expressed as (OD mean +/− SEM). Statistical analysis was by ANOVA, Dunnett’s multiple comparisons test.
# DU145 cells = experiment: MTS viable cell assay, DU145 (Epistem); format: cell-based, human; settings: DU145, 72h
# Experimental: as §3
# [2] = tested on: human marrow derived mesenchymal stem cells (hMSCs); experiment: Peptide immobilisation studies, hMSC proliferation (CyQuant) and FACS; format: cell-based; settings: alanine substitution study; for Mean cell number: N-terminally tethered, seeding 5,000 cells per well, CyQuant, mean +/− SEM, n = 3
# Text: Could the antiproliferative activity in vitro of EPL001 in solution be more predictably evoked and investigated more readily if the peptide is instead tethered to the cell culture’s substratum? […] In the first study EPL001 was immobilised by either its N terminus or C terminus and human stem cells exposed accordingly. This followed a confirmation of dissolved EPL001’s antiproliferative activity in the same laboratory (JAH). In the second study, aa sections of EPL001 were substituted with alanine strings prior to tethering, to define a functional biological motif. Into the base of each well of a 24-well plate was inserted a glass coverslip (13mm diameter, borosilicate glass, SLS, Nottingham, UK), upon the upper surface of which had been immobilised an individual peptide using a bioconjugate technique. During preparation of the coverslips, the surfaces were modified with carboxyl (−COOH) or amine (−NH2) groups separately using a published method. The carboxyl on the coverslips or at the end of the peptide sequence were reacted with NHS in the presence of EDC, resulting in a semi-stable NHS ester, which could then be reacted with primary amines (−NH2) on the coverslips or at the end of the peptide sequences to form amide crosslinks. For the carboxyl modified coverslips, the final peptide grafted on to the surface via its NH2 terminus was in the form Glass-CO-NH-Peptide. For the amine modified coverslips, the final peptide grafted on to the surface via its COOH terminus was in the form Glass-NH-CO-Peptide. The concentration of the peptides across the glass was approximately […]. Uncoated glass was used as the reference control. Treatments were in triplicate (i.e. n = 3). The cells used were human marrow derived mesenchymal stem cells (hMSCs, Lonza, Slough, UK, cat No PT-2507). In the EPL001-terminus study they were seeded at 10,000 cells per well; in the alanine substitution study the density was 5,000 cells per well. The cells were maintained in DMEM with 10% FSC. EPL001 and three alanine-substituted versions of it were deployed separately: MKPLTGKVKEFNNI (EPL001), AAAAAGKVKEFNNI (EPL590), MKPLTAAAAEFNNI (EPL545) and MKPLTGKVKEAAAA (EPL104). The peptides in the alanine substitution study were N-terminally tethered to the substrate. Cell numbers were measured by CyQuant® (Invitrogen, Paisley, UK). […] Statistical analysis was by ANOVA using SPSS software.
# Four 14-aa peptides were synthesised: MKPLTGKVKEFNNI (EPL001), AAAAAGKVKEFNNI (EPL590), MKPLTAAAAEFNNI (EPL545) and MKPLTGKVKEAAAA (EPL104). The peptides were generated from l-isomer amino acids by solid phase peptide synthesis (Model 9050, Milligen). All peptides were N-terminally tethered to the substrate by a bioconjugate technique. MSCs were derived from human bone marrow and maintained in DMEM with 10% FSC. Cells were seeded on peptide treated surfaces including a glass control in a 24-well plate with cell density 5 x 10^3. The growth inhibitory activity was examined via cell proliferation assays and cell cycle analysis, using PI and Ki-67 staining. The cell phenotype and viability (7-AAD) were analysed by flow cytometry.
# human dental pulp cells = settings: 5μM (single starting dose) in the cell medium; over 7 days; cited from earlier work
# Text: EPL001 is a found sequence, as described in the Introduction. As a 14mer synthetic peptide it has been represented elsewhere as a minimized ball and stick model in silico [9]. […] An anti-EPL001 antibody administered alone potentiated compensatory renal grow ...
substance,measurement,setting,value
"KGNEVMKLFPTINE [EPL010, Scrambled control (Haylor et al, 2009)]",Activity in a mouse renal cell assay in vitro,mouse renal cell,inactive
"EPL120: EPL001 Edman sequence tentatively extended 6 further reads, to make a 20mer (MKPLTGKVKEFNNIKGFGVI)",Effect on bone marrow cells in culture,rat bone marrow cells,pro-apoptotic
same,Inhibition of IGF-1 stimulated growth in MCF-7 cell numbers,[1],dose-dependent inhibition
MKPNFN [EPL600],Difference in percentage terms between control and test OD means,PC3 cells,−27.3%
same,Difference in percentage terms between control and test OD means,PNT2 cells,−39.7%
same,Reduction in test mean OD versus the vehicle control mean,LNCaP cells,−35.1%
same,Test mean OD vs control mean,DU145 cells; 0.015 μM,+8.6%
same,Test mean OD vs control mean,DU145 cells; 0.15 μM,−0.1%
same,Test mean OD vs control mean,DU145 cells; 1.5 μM,−8.4%
same,Test mean OD vs control mean,DU145 cells; 15 μM,−7.1%
same,Test mean OD vs control mean,DU145 cells; 150 μM (highest concentration),−16.9%
"AAAAAGKVKEFNNI [EPL590, Substituted EPL001; alanines 1–5]",Reduction in test mean OD versus the vehicle control mean,LNCaP cells,−21.4%
same,Cell number vs Glass,[2]; Day 7,16%
same,Cell number vs Glass,[2]; Day 14,−23%
same,Mean cell number,[2]; Day 7,"11,805 +/−4,028"
same,Mean cell number,[2]; Day 14,"20,347 +/−2,264"
MKPVFN [EPL601],Difference in percentage terms between control and test OD means,PC3 cells,−28.0%
same,Difference in percentage terms between control and test OD means,PNT2 cells,−33.2%
same,Reduction in test mean OD versus the vehicle control mean,LNCaP cells,−16.0%
same,Test mean OD vs control mean,DU145 cells; 0.015 μM,+6.9%
same,Test mean OD vs control mean,DU145 cells; 0.15 μM,−4.3%
same,Test mean OD vs control mean,DU145 cells; 1.5 μM,−10.4%
same,Test mean OD vs control mean,DU145 cells; 15 μM,−11.4%
same,Test mean OD vs control mean,DU145 cells; 150 μM (highest concentration),−14.3%
"KVKEFNNI [EPL018, KVKEFNNI, EPL001 Back 8]",Reduction in cell numbers,human dental pulp cells,~ 17%
